# Key:
# Mus musculus = details: subchronic; duration: 90 days; oral; organ weight
# Canidae = details: oral, Dog Other, organ weight
# Oryctolagus sp. = details: developmental; development
smiles,measurement,setting,value
C=CCSC(=O)n1c(N)c(-c2ccccc2C)c(=O)n1C(C)C [Fenpyrazamine],NOAEL,Mus musculus,28 mg/kg-day
same,NOAEL,"Canidae; chronic, duration: 1 years",25 mg/kg-day
same,NOAEL,"Canidae; subchronic, duration: 90 days",25 mg/kg-day
same,NOAEL,Oryctolagus sp.,30 mg/kg-day
same,LC50,"Colinus virginianus; acute, oral, diet, mortality",> 954 mg/kg-day
same,LD50,"Colinus virginianus; acute, oral, mortality",> 2000 mg/kg-day
same,NOEC,Colinus virginianus; reproduction developmental,82.9 mg/kg-day
same,LD50,"Rattus norvegicus; acute, oral, mortality",> 2000 mg/kg-day
same,NOAEL,"Rattus norvegicus; chronic, duration: 2 years, M, histopathology: nonneoplastic",12.7 mg/kg-day
same,NOAEL,"Rattus norvegicus; reproduction developmental, F, organ weight",20.3 mg/kg-day
same,NOAEL,"Rattus norvegicus; reproduction developmental, M, organ weight",20 mg/kg-day
same,NOEL,"Rattus norvegicus; reproduction developmental, body weight",28.5 mg/kg-day
